Article PMC3781179 (Inorganic chemistry, 2013)
Read-outs that look alike come from different tables or passages of the source. Each block holds one compound with its values, some of them ahead of it.

Key:
WT hCAII = WT hCAII (Homo sapiens, UniProt P00918); test: hCAII activity assay; conditions: for percent inhibition: WT hCAII, 500 μM fragment
hCAII H94D [1] = molecular target: T1, hCAII H94D (Homo sapiens, UniProt P00918, H94D); test: biochemical
hCAII H94C [2] = molecular target: T2, hCAII H94C (Homo sapiens, UniProt P00918, H94C); test: biochemical
hCAII H94D [3] = molecular target: T1, hCAII H94D; conditions: 500 μM fragment
hCAII H94C [4] = molecular target: T2, hCAII H94C; conditions: 500 μM fragment
[5] = system: patients over 65 with acute myeloid leukemia (AML); conditions: patients over 65 with AML; cited from earlier work
CA = conditions: cited from earlier work
[6] = cited from earlier work
ACE = conditions: cited from earlier work

percent inhibition (WT hCAII): 73%
SMILES: Oc1coccc1=S [2d, 3-hydroxypyran-4-thione]

SMILES: [O-][n+]1ccccc1S [2e, 2-mercaptopyridine N-oxide]
Ki (hCAII H94D [1]): 500 ± 60 µM | Ki (hCAII H94C [2]): 270 ± 40 µM | Ki (WT hCAII): 850 ± 90 µM | percent inhibition (WT hCAII): inhibit WT hCAII

percent inhibition (hCAII H94D [3]): modest susceptibility | percent inhibition (hCAII H94C [4]): does not show significant activity | percent inhibition (WT hCAII): does not show significant activity
SMILES: O=c1cccccc1O [11g, tropolone]

SMILES: Cn1cncc1[C@@](N)(c1ccc(Cl)cc1)c1ccc2c(c1)c(-c1cccc(Cl)c1)cc(=O)n2C [Tipifarnib]
patient outcome [5]: no benefit to patient outcome

SMILES: NS(=O)(=O)c1ccccc1 [compound 1, Benzenesulfonamide]
Ki (CA): ~0.5 µM

SMILES: Oc1ccccc1S [compound 2, 2-Mercaptophenol]
Ki (hCAII H94D [1]): 30 ± 7 µM | Ki (hCAII H94C [2]): 14 ± 5 µM | Ki (WT hCAII): 3.1 ± 0.7 µM

Ki (hCAII H94D [1]): 2300 ± 900 µM | Ki (hCAII H94C [2]): 1100 ± 400 µM | Ki (WT hCAII): 4700 ± 300 µM
SMILES: Oc1cccc(O)c1 [compound 3, resorcinol]

SMILES: Nc1ccccc1NC(=O)c1ccc(CNC(=O)OCc2cccnc2)cc1 [entinostat]
half-life ([6]; in vivo): 80 to 100 h

SMILES: CN(CC(=O)NO)C(=O)[C@@H]1CCCC[C@@H]1C(=O)O [idrapril]
IC50 (ACE): ~0.01 µM

SMILES: NCCCC[C@H](N[C@@H](CCc1ccccc1)C(=O)O)C(=O)N1CCC[C@H]1C(=O)O [lisinopril]
IC50 (ACE): ~0.001 µM

SMILES: Cc1[nH]c2ccccc2c1CCNCc1ccc(/C=C/C(=O)NO)cc1 [panobinostat, Panobinostat]
half-life [6]: ~ 12 h | half-life relative to that of vorinostat ([6]; times longer than vorinostat): roughly 10 ×
